# Test results from patent US9464326B2, “Total and phosphorylated IL-1 receptor-associated kinase-1 and IL-1 receptor-associated kinase-4 as a biomarker for cancer progression and chemotherapy resistance” (University of Maryland, Baltimore, priority 2012, dated 2016).
# Tests used:
# CCRF-CEM cells = experiment: Cell cycle analysis (PI staining); assay type: cell-based, human; conditions: 5 uM
# Description: Control and treated cells were collected, fixed and stained with propidium iodide (100 μg/mL) in PBS containing sodium citrate (1 mg/mL), Triton-X-100 (0.1%), and RNAse (20 μg/mL) for 30 min. Data were acquired on a BD FACScan flow cytometer using CellQuest software (BD Immunocytometry Systems, San Jose, Calif.) and analyzed by using FlowJo software (Tree Star, Inc., Ashland, Oreg.).
# It was investigated whether the reduced proliferation that we observed with IRAK-1,-4 inhibitor (FIG. 11 and FIG. 12) was a result of cell cycle arrest or apoptosis. CCRF-CEM cells were treated with IRAK-1,-4 inhibitor for 24, 48, 72, and 96 hours.
# IRAK-1 = IRAK-1 (Homo sapiens, UniProt P51617); conditions: supplier (EMD Millipore) description; cited from earlier work
# IRAK-1, sequence (P51617 whole entry): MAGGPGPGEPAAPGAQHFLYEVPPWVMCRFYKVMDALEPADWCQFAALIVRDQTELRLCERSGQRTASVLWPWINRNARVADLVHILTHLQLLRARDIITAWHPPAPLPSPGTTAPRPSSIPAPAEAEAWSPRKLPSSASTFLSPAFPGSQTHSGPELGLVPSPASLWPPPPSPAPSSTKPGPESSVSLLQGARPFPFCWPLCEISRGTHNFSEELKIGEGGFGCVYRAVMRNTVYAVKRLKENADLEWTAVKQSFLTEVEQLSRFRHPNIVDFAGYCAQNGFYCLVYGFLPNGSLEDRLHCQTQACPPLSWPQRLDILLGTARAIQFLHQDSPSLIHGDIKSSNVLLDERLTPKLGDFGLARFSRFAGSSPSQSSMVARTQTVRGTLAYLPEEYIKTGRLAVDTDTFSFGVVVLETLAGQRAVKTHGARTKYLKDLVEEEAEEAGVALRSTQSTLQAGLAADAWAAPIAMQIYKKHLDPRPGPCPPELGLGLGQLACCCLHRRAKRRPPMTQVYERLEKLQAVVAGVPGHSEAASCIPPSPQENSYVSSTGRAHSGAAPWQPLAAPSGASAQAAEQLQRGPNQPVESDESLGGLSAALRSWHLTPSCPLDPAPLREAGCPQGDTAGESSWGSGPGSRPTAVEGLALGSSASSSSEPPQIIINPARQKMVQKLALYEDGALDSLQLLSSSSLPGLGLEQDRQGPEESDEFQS
# patient T-ALL cells = experiment: Patient T-ALL numbers in NSG mice (flow cytometry); assay type: in vivo; conditions: patient T-ALL cells in irradiated NSG mice; 10 mg/Kg i.p. days 7, 10, 13; FIG. 12
# Description: FIG. 12. […] NSG mice were irradiated (400 cGy) one day prior to intravenous injection of patient T-ALL cells (6×10^6 cells/mouse). Once 100 T-ALL cells/ul of blood were detected, mice were received one intraperitoneal injection with IRAK-1,-4 inhibitor (10 mg/Kg) or an equal volume of control vehicle (DMSO) on days 7, 10 and 13. Numbers of T-ALL cells (CD7^+) in peripheral blood were determined on day 27 and D21 by flow cytometry as described in FIG. 1. All the data shown are representative of two independent experiments (±SD) with three mice per group. Representative dot plots from bone marrow are shown in A (left panel). ANOVA; *P<0.05.
# CCRF-CEM (2×10^6) cells were injected intravenously (i.v.) into female NOD.Cg-Prkdc^scid Il2rg^tm1WJl/SzJ IL2RG (NSG) mice (Jackson Laboratories, Bar Harbor, Me.). […] In some experiments mice were injected i.v. with TLR1-TLR2 ligand (2.5 μg) two days after injecting cells. In other experiments mice were injected intraperitoneally (i.p.) with IRAK-1,-4 inhibitor (10 mg/kg) 3, 6, and 9 days (CCRF-CEM cells) or 7, 10, and 13 days (patient T-ALL cells) after detecting CD7^+ T-ALL cells in circulation. The numbers of T-ALL cells in the bone marrow, spleen, liver, and in circulation were determined by staining cells with anti-human CD7 and/or CD5. […]
# HSB-2 = experiment: Proliferation (3H-thymidine) of HSB-2; assay type: cell-based, human
# Text: (§1) CCRF-CEM, CEM/C1, CEM/C2, CEM-C7, Jurkat, Loucy, Molt-4, HSB-2, SUP-T1, Hut 78, HH, Hut 102, MO, and H9 T-leukemia and T-lymphoma cell lines were purchased from the American Type Culture Collection (Manassas, Va., USA). All of the cell lines were initially expanded and cryopreserved within one month of receipt. Cells were typically used for 6 months at which time a fresh vial of cryopreserved cells was used. Total T cells from healthy donors were isolated via negative selection followed by positive selection using a CD3+ selection kit (Invitrogen, Carlsbad, Calif.). T cells were isolated from patients with T-ALL bone marrow or peripheral blood samples containing more than 70% leukemia cells using a CD2+ isolation kit (STEMCELL Technologies, Vancouver, Canada). All tissues were collected under institutional IRB-approved protocols and all participants gave written informed assent/consent. For in vitro experiments, T-ALL cells were cultured in AIM-V medium supplemented with 20% human AB serum in the presence of recombinant human stem cell factor (50 ng/mL; Amgen, Thousand Oaks, Calif.), insulin (20 nM; Sigma-Aldrich, St Louis, Mo., USA) and IL-7 (50 ng/mL; R&D Systems, Minneapolis, Minn., USA). In other experiments, protein lysate was collected using the Full Moon Biosystems (Sunnyvale, Calif., USA) buffer prior to protein examination by western blot or protein array.
# Cells were cultured in a 96-well plate (Corning Costar, Corning, N.Y., USA) with various concentrations of TLR ligands 1-9, starting at 10 μg/ml, in a final volume of 200 ul. TLR ligands were diluted 2-fold. Cell lines (25-40×10^3/well) were cultured for 54 hours, whereas fresh patient-derived T-ALL cells (200×10^3/well) were cultured for 30 hours prior to adding [^3H]-thymidine for 18 hours. After this time point, cells were harvested with a Packard Filter-Mate-96 cell harvester (Perkin Elmer, Waltham, Mass., USA) and counted on Packard Top Count-NXT (Perkin Elmer, Waltham, Mass., USA). Results were expressed as average counts per minute (cpm). In some experiments CCRF-CEM cells were pre-treated with TLR1-TLR2 ligand (Pam3CysK4; 2.5 ug/ml) for 48 hrs, washed, and then cultured in the presence of varying concentrations of FBS. Forty-eight hours later, proliferation (±SD) was determined by ^3H-thymidine incorporation. Alternatively, apoptosis was measured by flow cytometry after staining cells with Annexin-V (BD Pharmingen, San Diego, Calif., USA) and propidium iodide (Sigma). Cell number was counted under microscopy by staining cells with trypan blue.
# The following TLR ligands were purchased from Invivogen (San Diego, Calif., USA): tripalmitoyl-S-(bis(palmitoyloxy)propyl)-Cys-Ser-(Lys)3-Lys (TLR1-2); Poly I:C (TLR3); ultrapure S. Minnesota Lipopolysaccharide (TLR4); S. typhimurium flagellin (TLR5); FSL-1 (TLR2/6); Imiquimod (TLR7); ssRNA40/Lyovec (TLR8); CpG-ODN 2006 (TLR9).
# HH = experiment: Proliferation (3H-thymidine) of HH; assay type: cell-based, human; conditions: 3H-thymidine uptake, 72 h
# Text: as §1, with “In other experiments, protein lysate was collected using the Full Moon Biosystems (Sunnyvale, Calif., USA) buffer prior to protein examination by western blot or protein array.” left out
# (§2) Cells were cultured in a 96-well plate (Corning Costar, Corning, N.Y., USA) with various concentrations of TLR ligands 1-9, starting at 10 μg/ml, in a final volume of 200 ul. […] After this time point, cells were harvested with a Packard Filter-Mate-96 cell harvester (Perkin Elmer, Waltham, Mass., USA) and counted on Packard Top Count-NXT (Perkin Elmer, Waltham, Mass., USA). Results were expressed as average counts per minute (cpm). […] Forty-eight hours later, proliferation (±SD) was determined by ^3H-thymidine incorporation. Alternatively, apoptosis was measured by flow cytometry after staining cells with Annexin-V (BD Pharmingen, San Diego, Calif., USA) and propidium iodide (Sigma). Cell number was counted under microscopy by staining cells with trypan blue. […]
# Molt-4 = experiment: Proliferation (3H-thymidine) of Molt-4; assay type: cell-based, human; conditions: 3H-thymidine uptake, 72 h
# Text: as §1, with “In other experiments, protein lysate was collected using the Full Moon Biosystems (Sunnyvale, Calif., USA) buffer prior to protein examination by western blot or protein array.” left out
# as §2
Compound,decrease of percentage of cells in S phase (CCRF-CEM cells; FIG. 14C) [%],percentage of cells in G0/G1 phase (CCRF-CEM cells; after 96 hours) [%],percentage of cells in G0/G1 phase (CCRF-CEM cells; within 24 hours (from 25%)) [%],inhibition of IRAK-1 (IRAK-1),T-ALL numbers (CD7+) in peripheral blood (patient T-ALL cells),"Proliferative effects of TLR ligands (HSB-2; 3H-thymidine uptake, 72 h)",TLR ligand concentration in parentheses below the symbol (HSB-2; no unit in table (μg/ml)),Proliferative effects of TLR ligands (HH),Proliferative effects of TLR ligands (Molt-4)
"O=C(Nc1nc2ccccc2n1CCN1CCOCC1)c1cccc([N+](=O)[O-])c1 [IRAK-1,-4 inhibitor]",~30,50,43,selectively inhibits,reduces T-ALL numbers,,,,
tripalmitoyl-S-(bis(palmitoyloxy)propyl)-Cys-Ser-(Lys)3-Lys [Pam3Cysk4],,,,,,− (reduced proliferation),(5),∘,∘
